Measurements from patent US11208475B1, “Methods and compositions for treating inflammatory or autoimmune diseases or conditions using serotonin receptor activators” (Flagship Pioneering Innovations V, Inc., priority 2018, dated 2021).

Tested on: macrophages
Assay: IL-8 secretion by macrophages incubated with serotonin receptor agonists (bead-based immunoassay)
Assay type: cell-based
Details: human CD14+ monocyte-derived macrophages (M-CSF), supernatant
Protocol: CD14+ monocytes were isolated from human PBMCs using negative magnetic bead selection (Stemcell Technologies) on day 0. Cells were cultured with M-CSF to differentiate monocytes to macrophages. On day 6, cells were treated with LP44 (high affinity 5-HT7 agonist), BW 723C86 hydrochloride (5-HT2B agonist), MK 212 hydrochloride (5-HT2C agonist) (Sigma-Aldrich), at concentrations 1 μM and 10 μM overnight. Supernatant was collected and bead-based immunoassays (Biolegend) were performed to detect changes in cytokine secretion.
Across multiple human donors, secretion of the inflammatory cytokine, IL8, by macrophages was decreased after addition of each of the HTR2B, HTR2C, and HTR7 agonists, as show in Table 17 below.

Row | SMILES | Fold change of IL-8 (Normalized to Macs + LPS with no compound treatment) (compound 1 μM overnight) | Fold change of IL-8 (Normalized to Macs + LPS with no compound treatment) (compound 10 μM overnight)
1 | CSc1ccccc1N1CCN(CCCCCC(=O)NC2CCCc3ccccc32)CC1 (stereo not drawn) [LP44] | 0.340 | 0.427
2 | Clc1cncc(N2CCNCC2)n1 [MK212] | 0.502 | 0.484
3 | CC(N)Cc1c[nH]c2ccc(OCc3cccs3)cc12.Cl (stereo not drawn) [BW723086] | 0.693 | 0.527
